Results taken from ChEMBL document CHEMBL1149880, “Xanthones from Gentianella amarella ssp. acuta with acetylcholinesterase and monoamine oxidase inhibitory activities” (J Nat Prod, 2008).

Columns and labels:
[1] = target: Acetylcholinesterase (Homo sapiens) (UniProt P22303); conditions: at 10 µM
Description: Inhibition of acetylcholinesterase at 10 uM by Ellman's method

[2] = target: T1, Amine oxidase [flavin-containing] A (Homo sapiens, UniProt P21397); experiment: Inhibition of monoamine oxidase A at 10 uM; conditions: read-out: INH
T1 sequence (P21397 whole entry): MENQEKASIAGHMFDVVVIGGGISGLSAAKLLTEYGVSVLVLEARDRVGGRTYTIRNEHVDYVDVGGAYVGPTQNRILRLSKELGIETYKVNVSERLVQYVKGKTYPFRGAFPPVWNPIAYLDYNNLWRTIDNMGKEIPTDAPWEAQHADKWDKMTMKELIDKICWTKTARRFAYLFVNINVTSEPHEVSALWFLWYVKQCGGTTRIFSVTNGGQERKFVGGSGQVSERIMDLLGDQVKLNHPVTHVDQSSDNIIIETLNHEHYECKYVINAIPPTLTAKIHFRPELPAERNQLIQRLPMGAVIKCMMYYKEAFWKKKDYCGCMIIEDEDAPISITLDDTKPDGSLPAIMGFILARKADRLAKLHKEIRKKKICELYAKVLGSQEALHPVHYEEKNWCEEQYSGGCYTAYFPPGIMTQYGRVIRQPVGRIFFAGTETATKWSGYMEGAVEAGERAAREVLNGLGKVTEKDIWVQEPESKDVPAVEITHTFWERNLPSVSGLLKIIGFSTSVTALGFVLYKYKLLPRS

[3] = target: T2, Amine oxidase [flavin-containing] B (Homo sapiens, UniProt P27338); experiment: Inhibition of monoamine oxidase B at 10 uM; conditions: read-out: INH
T2 sequence (P27338 whole entry): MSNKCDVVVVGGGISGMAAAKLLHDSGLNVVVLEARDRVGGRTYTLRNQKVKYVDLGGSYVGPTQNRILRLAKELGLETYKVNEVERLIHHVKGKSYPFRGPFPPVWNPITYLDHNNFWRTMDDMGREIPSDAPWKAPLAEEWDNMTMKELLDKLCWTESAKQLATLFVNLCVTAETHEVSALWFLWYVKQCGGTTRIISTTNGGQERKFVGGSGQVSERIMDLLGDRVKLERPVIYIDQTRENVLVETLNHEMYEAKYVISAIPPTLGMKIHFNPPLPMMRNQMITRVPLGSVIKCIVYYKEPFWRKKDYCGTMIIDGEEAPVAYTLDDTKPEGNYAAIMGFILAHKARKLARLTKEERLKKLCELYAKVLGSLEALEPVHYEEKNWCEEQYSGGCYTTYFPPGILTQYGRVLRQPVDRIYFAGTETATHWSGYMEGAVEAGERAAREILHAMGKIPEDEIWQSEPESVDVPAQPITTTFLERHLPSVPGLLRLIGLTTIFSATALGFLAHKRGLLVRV

Sequence of Acetylcholinesterase (Homo sapiens) (P22303 whole entry): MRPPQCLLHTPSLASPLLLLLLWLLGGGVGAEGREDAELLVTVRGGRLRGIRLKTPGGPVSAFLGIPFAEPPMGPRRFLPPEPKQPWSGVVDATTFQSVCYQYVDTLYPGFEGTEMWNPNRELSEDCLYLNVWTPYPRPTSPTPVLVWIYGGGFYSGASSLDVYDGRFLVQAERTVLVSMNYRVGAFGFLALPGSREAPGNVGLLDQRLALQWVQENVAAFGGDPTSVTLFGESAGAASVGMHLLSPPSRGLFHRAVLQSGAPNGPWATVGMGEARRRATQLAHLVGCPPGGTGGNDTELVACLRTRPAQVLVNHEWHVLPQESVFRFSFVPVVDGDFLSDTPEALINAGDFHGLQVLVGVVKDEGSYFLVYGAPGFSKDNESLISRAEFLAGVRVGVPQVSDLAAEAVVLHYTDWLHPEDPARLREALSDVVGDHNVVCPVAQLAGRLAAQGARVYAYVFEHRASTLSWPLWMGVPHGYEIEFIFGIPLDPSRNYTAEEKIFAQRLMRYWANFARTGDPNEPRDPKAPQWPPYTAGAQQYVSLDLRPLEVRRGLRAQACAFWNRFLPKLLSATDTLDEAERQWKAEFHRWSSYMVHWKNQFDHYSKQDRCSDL

Row | SMILES | inhibition [1] [%] | inhibition at 10 µM [2] [%] | inhibition at 10 µM [3] [%]
1 | COc1cc(O)c2c(=O)c3cc(O[C@@H]4O[C@H](CO)[C@@H](O)[C@H](O)[C@H]4O)ccc3oc2c1OC [VERATRILOSIDE] | 28.2 | 19.4 | 56
2 | C#CCN(C)Cc1ccccc1 [PARGYLINE] |  | 60 | 98.2
3 | O=c1c2c(O)cc(O)cc2oc2c(O)ccc(O)c12 [DEMETHYLBELLIDIFOLIN] | 17.5 | 90.5 | 59
4 | COc1c(O)ccc2c(=O)c3c(OC4O[C@H](CO)[C@@H](O)[C@H](O)[C@H]4O)cc(O)c(OC)c3oc12 (some centres not stated) | 1.5 | 15 | 70.5
5 | O=c1c2c(O)c(-c3cc(O)c4oc5cc(O)cc(O)c5c(=O)c4c3O)c(O)cc2oc2c(O)ccc(O)c12 | 20.9 | 14.8 | 41.1
6 | O=c1c2c(O)cc(O)cc2oc2c(O)ccc(O[C@@H]3O[C@H](CO)[C@@H](O)[C@H](O)[C@H]3O)c12 [NORSWERTIANOLIN] | 4.4 | 12.2 | 28.9
7 | COc1ccc(O)c2c(=O)c3c(O)cc(O[C@@H]4O[C@H](CO)[C@@H](O)[C@H](O)[C@H]4O)c(OC)c3oc12 | 17.6 | 40.2 | 47.8
8 | COc1ccc(O[C@@H]2O[C@H](CO)[C@@H](O)[C@H](O)[C@H]2O)c2c(=O)c3c(O)c(-c4cc(O)c5oc6cc(O)cc(O)c6c(=O)c5c4O)c(O)cc3oc12 | 12.3 | 21.4 | 39.1
9 | COc1cc(O)c2c(=O)c3c(O)ccc(O)c3oc2c1 [BELLIDIFOLIN] | 21.9 | 98.9 | 65.2
10 | COc1cc(O)c2c(=O)c3c(O)c(O[C@@H]4O[C@H](CO)[C@@H](O)[C@H](O)[C@H]4O)ccc3oc2c1OC [TRIPTEXANTHOSIDE C] | 43.7 | 13.4 | 38.8
11 | COc1cc(O)c2c(=O)c3c(O[C@@H]4O[C@H](CO)[C@@H](O)[C@H](O)[C@H]4O)ccc(O)c3oc2c1 [SWERTIANOLIN] | 9.8 | 43.8 | 93.6
